Source: patent US12139505B2, “Compositions useful in therapy of autophagy-related pathologies, and methods of making and using the same” (The University of Toledo, priority 2017, dated 2024)
“Also recorded” adds a separate entry of the source.

Legend:
Type in all cases: in vivo, Drosophila melanogaster
[1] = tested on: d42-Gal4;UAS-nSyb-GFPxUAS-C9orf72polyGR36 flies; experiment: Fly sleep behavior, C9orf72 ALS model
Procedure: The base for the food was a cornmeal agar product, Nutri-fly BF (Genesee Scientific, Box of 10, 1-liter bags, Cat #66-112). In a 2 L beaker, 1 L of ultrapure water was heated to […], with the stir bar speed set to 600. To the beaker, one bag of Nutri-fly BF was added in small portions. The beaker was covered to maintain temperature (monitored with an inserted thermometer) while stirring as rapidly as possible until the temperature reached 97° C. The food was stirred at this temperature for 10 minutes using a wooden spoon/spatula, then allowed to cool to approximately 65° C. with continuous stirring (magnetic bar). At 65° C., while maintaining constant stirring, 12 mL of Tegosept was added followed by 7 mL of propionic acid solution. To be used as fly maintenance food, the food was allowed to cool to 55° C. and 4 mL of the food was aliquoted (to a depth of approximately 1 inch) into individual vials with mity drosophila plugs (VWR #75813-162 and #10054-506). For use as a drug delivery vehicle, the food was allowed to cool to room temperature while covered with aluminum foil, then sealed with parafilm stored at 4° C. To prepare the food for drug delivery, the food was homogenized at room temperature with an immersion blender. To prepare the drug-infused-food, about half of the calculated food, accurately measured, was added to a 250 mL beaker, followed by the drug (no carrier solvent is used). The drug was then covered with the rest of the food and the contents of the beaker were thoroughly mixed with an overhead mixer (with shroud removed) until the drug was distributed homogeneously within the food. The food was then distributed in 4.00 g aliquots to the vials with plugs (described above). The food-containing vials were centrifuged in 50 mL tubes at an appropriate speed (approximately 1000 to 1400 g) to just force the “drug food” to the bottom of the feeding vial. The vials were closed with the cotton mity plug until use.
Test flies were transferred individually, under CO2 anesthesia, into 5 mm×65 mm (outside diameter×length) polycarbonate recording tubes with either minimal media or normal fly food on one end and yarn plugs on the other. Sleep parameters were continuously evaluated using the TriKinetics Drosophila activity monitoring system. Sleep is defined as 5 min or more of continuous inactivity, the minimum amount of time to qualify as a single sleep bout. Zeitgeber time (ZT) 0 is defined as the time of lights on and ZT12 is defined as the time of lights off. Mobility (activity) was also monitored and data tabulated based on the number of beam counts and diurnal variations were calculated. The sleep and mobility data were collected and analyzed.

PINK1^B9 flies [2] = experiment: Fly climbing assay; conditions: 100 μM in media
Procedure: 2-n-hexyl-LKE-P was dissolved in DMSO and supplemented into a warm solution of minimal media (5% sucrose, 2% agarose and water, 60° C.) to a final concentration of 10, 100 and 1000 μM. Freshly eclosed adult flies were transferred to minimal media containing the drug for one day followed by the experiments. The locomotive ability of flies was assessed 10 days after eclosion via a climbing assay. 15 flies were transferred to a tube marked 17.5 cm from the bottom and a digital camera, connected directly to a PC, recorded flies as they cross the line, continuously, for two minutes. Analysis of the recorded video was done by recording the number of flies that remain above the 17.5 cm line every ten seconds. If a fly climbs back down or falls, that fly is removed from the total count at the next 10 second time point. The percentage of flies remaining above the line at the 120 second time point was recorded. The 120 second time point was chosen because it has been previously determined that this is the average amount of time required for all untreated flies to cross the 17.5 cm mark.

PINK1^B9 flies [3] = experiment: Fly longevity (survival) assay
Procedure: 2-n-hexyl-LKE-P was dissolved in DMSO and supplemented into a warm solution of minimal media (5% sucrose, 2% agarose and water, 60° C.) to a final concentration of 10, 100 and 1000 μM. Freshly eclosed adult flies were transferred to minimal media containing the drug for one day followed by the experiments. 15 flies from each group were placed in a vial containing food, kept on its side to prevent the flies from sticking to the media, at 23° C., 60% humidity, under a 12-h light-dark cycle. Food vials were changed every 2-3 days and the dead flies were counted daily. Over 100 flies were prepared for each genotype and the experiments were carried out three times. The number of surviving flies on each day was converted to surviving days for each fly and imported to GraphPad Prism. Kaplan-Meier surviving curves were graphed and statistics was performed by log-rank test on the surviving data to compare the longevity with different treatment.

CCCCCCC1=C(P(=O)(O)O)N[C@H](C(=O)OCC)CS1 [2-n-hexyl-LKE-P]
daytime sleeping time of control flies ([1]; d42-Gal4: UAS-nSyb-GFPxUAS-W1118 control flies): did not change the daytime sleeping time of control flies | number of sleep bouts during the day ([1]; polyGR36 in motor neurons): decreased the number of sleep bouts during the day | total sleep time ([1]; polyGR36 in motor neurons): increased total sleep time | daytime sleepiness / daytime sleeping time of mutant flies ([1]; polyGR36 in motor neurons, drug in food throughout development): decreased the daytime sleeping time of mutant flies; also recorded: rescued the daytime sleepiness | climbing ability of PINK1^B9 flies (PINK1^B9 flies [2]): statistically significant improvement in the climbing ability; also recorded: significant improvement of PINK1^B9 climbing ability | survival of PINK1^B9 flies (PINK1^B9 flies [3]; 10 μM in media): did not significantly affect the survival | survival of PINK1^B9 flies (PINK1^B9 flies [3]; 100 μM in media): did not significantly affect the survival | lifespan of PINK1^B9 flies (PINK1^B9 flies [3]; 1000 μM in media): extended the lifespan; also recorded: significantly increased the PINK1^B9 lifespan | lifespan of PINK1^B9 flies (PINK1^B9 flies [3]; dose not stated (summary)): more than double the lifespan
